Results as given in the NIST ThermoML archive (doi:10.1016/j.jct.2004.09.014).
± gives the expanded uncertainty stated by the source.

Key:
[1] = 101.3 kPa, Liquid
[2] = xn = mol fraction of the nth substance listed; details: 101.3 kPa, Liquid

SMILES	mass density ([1]; 293.15 K)	mass density ([1]; 298.15 K)	mass density ([1]; 303.15 K)	mass density ([1]; 308.15 K)	mass density ([1]; 313.15 K)	other results
COCCOCCO [2-(2-methoxyethoxy)ethanol]	1020.8 ± 1.4 kg/m3	1016.4 ± 1.4 kg/m3	1011.83 ± 1.5 kg/m3	1007.69 ± 1.5 kg/m3	1003.22 ± 1.5 kg/m3	
COCCOCCOCCO [2-[2-(2-methoxyethoxy)ethoxy]ethanol]	1047.29 ± 1.9 kg/m3	1042.97 ± 1.9 kg/m3	1038.65 ± 1.9 kg/m3	1034.33 ± 1.9 kg/m3	1030.01 ± 2 kg/m3	
CCOC(C)(C)C [2-ethoxy-2-methylpropane]	741.11 ± 0.61 kg/m3	735.59 ± 0.65 kg/m3	730.85 ± 0.69 kg/m3	725.98 ± 0.73 kg/m3	720.69 ± 0.77 kg/m3	
CCOC(C)(C)C [2-ethoxy-2-methylpropane] + COCCOCCO						mass density ([2]; 293.15 K, x1 = 1): 741.11 ± 0.61 kg/m3; mass density ([2]; 298.15 K, x1 = 1): 735.59 ± 0.65 kg/m3; mass density ([2]; 303.15 K, x1 = 1): 730.85 ± 0.69 kg/m3; mass density ([2]; 308.15 K, x1 = 1): 725.98 ± 0.73 kg/m3; mass density ([2]; 313.15 K, x1 = 1): 720.69 ± 0.77 kg/m3
CCOC(C)(C)C [2-ethoxy-2-methylpropane] + COCCOCCOCCO						mass density ([2]; 293.15 K, x1 = 1): 741.11 ± 0.61 kg/m3; mass density ([2]; 298.15 K, x1 = 1): 735.59 ± 0.65 kg/m3; mass density ([2]; 303.15 K, x1 = 1): 730.85 ± 0.69 kg/m3; mass density ([2]; 308.15 K, x1 = 1): 725.98 ± 0.73 kg/m3; mass density ([2]; 313.15 K, x1 = 1): 720.69 ± 0.77 kg/m3
COCCO [2-methoxyethan-1-ol]	964.88 ± 1 kg/m3	960.29 ± 1.1 kg/m3	955.76 ± 1.1 kg/m3	951.1 ± 1.1 kg/m3	946.54 ± 1.1 kg/m3	
COCCO [2-methoxyethan-1-ol] + CCOC(C)(C)C						mass density ([2]; 293.15 K, x2 = 0): 964.88 ± 1 kg/m3; mass density ([2]; 298.15 K, x2 = 0): 960.29 ± 1.1 kg/m3; mass density ([2]; 303.15 K, x2 = 0): 955.76 ± 1.1 kg/m3; mass density ([2]; 308.15 K, x2 = 0): 951.1 ± 1.1 kg/m3; mass density ([2]; 313.15 K, x2 = 0): 946.54 ± 1.1 kg/m3
